# Target: T1, Human BCL6 protein (N-terminal HiBiT tagged BCL6 in HT1080 cells) (Homo sapiens, UniProt P41182+Q96SW2)
# T1 construct: Human BCL6 protein coding open reading frame; expressed in transfected cells; host or cells: HT1080 (ATCC CCL-121), stably transduced with lentivirus pLV-UBC-N-HiBiT-BCL6-PGK-puro
# Assay: HiBiT based BCL6 degradation assay
# Assay type: cell-based
# Conditions: HT1080 cells expressing N-terminal HiBiT tagged BCL6; 5 hours incubation; BCL6 degradation normalized with DMSO control
# Description: Human BCL6 protein coding open reading frame fused with N-terminal HiBiT coding sequence was synthesized from Integrated DNA Technologies (IDT). Next, the N-HiBiT-BCL6 sequence was cloned into pLV-UBC-PGK-Puro, a lentivirus plasmid purchased from Vectorbuilder, to generate pLV-UBC-N-HiBiT-BCL6-PGK-puro. Lentiviral particles were generated from Lenti-X™ 293T cells (Clontech) by co-transfection of pLV-UBC-N-HiBiT-BCL6-PGK-puro plasmids and lentiviral packaging plasmid mix (Cellecta). HT1080 [HT1080] (ATCC CCL-121) cells were infected with the lentivirus, and HT1080 cells stably integrated with the lentiviral vectors were established by incubation with 1 μg/mL puromycin (Thermofisher).
# HT1080 cells expressing N-terminal HiBiT tagged BCL6 were dispensed into a 384-well plate pre-spotted with compounds at varying concentrations. Five thousand cells were seeded into each well in 40 μL of RPMI 1640 media plus 10% Fetal Bovine Serum (10082-147, Thermofisher). After 5 hours of incubation at 37° C. with 5% CO2, 30 μL of the NANO-GLO® HiBiT Lytic Detection System working solution (Promega) was added to each well and incubated at room temperature for 15 min. After incubation, luminescence was read on a PHERAstar FSX Plate Reader (BMG). BCL6 degradation at each indicated concentration was normalized with DMSO control. The BCL6 degradation curves were plotted using a four-parameter logistic model.
row,Compound,Ymin (5 hr)
1,"CNC(=O)COc1cc2cc(Nc3nc(N4CCN(CC5CCC6(CC5)CN(c5ccc7c(C8CCC(=O)NC8=O)nn(C)c7c5)C6)CC4)ncc3Cl)ccc2n(C)c1=O (centres unmarked) [Compound 103, 2-((6-((5-chloro-2-(4-((2-(3-(2,6-dioxopiperidin-3-yl)-1-methyl-1H-indazol-6-yl)-2-azaspiro[3.5]nonan-7-yl)methyl)piperazin-1-yl)pyrimidin-4-yl)amino)-1-methyl-2-oxo-1,2-dihydroquinolin-3-yl)oxy)-N-methylacetamide]",++++ (Ymin ≤ 25%)
2,"CNC(=O)COc1cc2cc(Nc3nc(N4CCN(CC5CCC6(CC5)CN(c5cccc7c(C8CCC(=O)NC8=O)nn(C)c57)C6)CC4)ncc3Cl)ccc2n(C)c1=O (centres unmarked) [Compound 104, 2-((6-((5-chloro-2-(4-((2-(3-(2,6-dioxopiperidin-3-yl)-1-methyl-1H-indazol-7-yl)-2-azaspiro[3.5]nonan-7-yl)methyl)piperazin-1-yl)pyrimidin-4-yl)amino)-1-methyl-2-oxo-1,2-dihydroquinolin-3-yl)oxy)-N-methylacetamide]",+++ (25% < Ymin ≤ 50%)
3,"CNC(=O)COc1cc2cc(Nc3nc(N4CCC(CNC(=O)c5cccc(C6CCC(=O)NC6=O)c5)CC4)ncc3Cl)ccc2n(C)c1=O (centres unmarked) [Compound 105, N-((1-(5-chloro-4-((1-methyl-3-(2-(methylamino)-2-oxoethoxy)-2-oxo-1,2-dihydroquinolin-6-yl)amino)pyrimidin-2-yl)piperidin-4-yl)methyl)-3-(2,6-dioxopiperidin-3-yl)benzamide]",++ (50% < Ymin ≤ 70%)
4,"CNC(=O)COc1cc2cc(Nc3nc(N4CCC[C@H](CNc5ccc(C6CCC(=O)NC6=O)cc5)C4)ncc3Cl)ccc2n(C)c1=O (stereo partly drawn) [Compound 106a, 2-((6-((5-chloro-2-((3R)-3-(((4-(2,6-dioxopiperidin-3-yl)phenyl)amino)methyl)piperidin-1-yl)pyrimidin-4-yl)amino)-1-methyl-2-oxo-1,2-dihydroquinolin-3-yl)oxy)-N-methylacetamide]",++ (50% < Ymin ≤ 70%)
5,"CNC(=O)COc1cc2cc(Nc3nc(N4CCC[C@@H](CNc5ccc(C6CCC(=O)NC6=O)cc5)C4)ncc3Cl)ccc2n(C)c1=O (stereo partly drawn) [Compound 106b, 2-((6-((5-chloro-2-((3S)-3-(((4-(2,6-dioxopiperidin-3-yl)phenyl)amino)methyl)piperidin-1-yl)pyrimidin-4-yl)amino)-1-methyl-2-oxo-1,2-dihydroquinolin-3-yl)oxy)-N-methylacetamide]",++ (50% < Ymin ≤ 70%)
6,"CNC(=O)COc1cc2cc(Nc3nc(N4CCN(CC5CCN(c6cccc7c(C8CCC(=O)NC8=O)nn(C)c67)CC5)CC4)ncc3Cl)ccc2n(C(C)C)c1=O (centres unmarked) [Compound 107, 2-((6-((5-chloro-2-(4-((1-(3-(2,6-dioxopiperidin-3-yl)-1-methyl-1H-indazol-7-yl)piperidin-4-yl)methyl)piperazin-1-yl)pyrimidin-4-yl)amino)-1-isopropyl-2-oxo-1,2-dihydroquinolin-3-yl)oxy)-N-methylacetamide]",++++ (Ymin ≤ 25%)
7,"CNC(=O)COc1cc2cc(Nc3nc(N4CCN(CC5CCN(c6ccc7c(C8CCC(=O)NC8=O)nn(C)c7c6)CC5)CC4)ncc3Cl)ccc2n(C(C)C)c1=O (centres unmarked) [Compound 108, 2-((6-((5-chloro-2-(4-((1-(3-(2,6-dioxopiperidin-3-yl)-1-methyl-1H-indazol-6-yl)piperidin-4-yl)methyl)piperazin-1-yl)pyrimidin-4-yl)amino)-1-isopropyl-2-oxo-1,2-dihydroquinolin-3-yl)oxy)-N-methylacetamide]",+++ (25% < Ymin ≤ 50%)
8,"CNC(=O)COc1cc2cc(Nc3nc(N4CCC[C@@H]4CNc4cccc(C5CCC(=O)NC5=O)c4)ncc3Cl)ccc2n(C)c1=O (stereo partly drawn) [Compound 260a, 2-((6-((5-chloro-2-((2R)-2-(((3-(2,6-dioxopiperidin-3-yl)phenyl)amino)methyl)pyrrolidin-1-yl)pyrimidin-4-yl)amino)-1-methyl-2-oxo-1,2-dihydroquinolin-3-yl)oxy)-N-methylacetamide]",++ (50% < Ymin ≤ 70%)
9,"CNC(=O)COc1cc2cc(Nc3nc(N4CCC[C@H]4CNc4cccc(C5CCC(=O)NC5=O)c4)ncc3Cl)ccc2n(C)c1=O (stereo partly drawn) [Compound 260b, 2-((6-((5-chloro-2-((2S)-2-(((3-(2,6-dioxopiperidin-3-yl)phenyl)amino)methyl)pyrrolidin-1-yl)pyrimidin-4-yl)amino)-1-methyl-2-oxo-1,2-dihydroquinolin-3-yl)oxy)-N-methylacetamide]",+ (Ymin > 70%)
10,"CNC(=O)COc1cc2cc(Nc3nc(N4CCC(CCNc5cccc(C6CCC(=O)NC6=O)c5)CC4)ncc3Cl)ccc2n(C)c1=O (centres unmarked) [Compound 263, 2-((6-((5-chloro-2-(4-(2-((3-(2,6-dioxopiperidin-3-yl)phenyl)amino)ethyl)piperidin-1-yl)pyrimidin-4-yl)amino)-1-methyl-2-oxo-1,2-dihydroquinolin-3-yl)oxy)-N-methylacetamide]",++ (50% < Ymin ≤ 70%)

# The remaining lines, values ahead:
row,Ymin (5 hr),Compound
1,++ (50% < Ymin ≤ 70%),"CNC(=O)COc1cc2cc(Nc3nc(N4CCC[C@H](CCNc5ccc6c(C7CCC(=O)NC7=O)nn(C)c6c5)C4)ncc3Cl)ccc2n(C)c1=O (single isomer, unassigned) [Compound 290a]"
2,+++ (25% < Ymin ≤ 50%),"CNC(=O)COc1cc2cc(Nc3nc(N4CCC[C@@H](CCNc5ccc6c(C7CCC(=O)NC7=O)nn(C)c6c5)C4)ncc3Cl)ccc2n(C)c1=O (single isomer, unassigned) [Compound 290b]"
3,++ (50% < Ymin ≤ 70%),"CNC(=O)COc1cc2cc(Nc3nc(N4CCC[C@H](CCNc5cccc6c(C7CCC(=O)NC7=O)nn(C)c56)C4)ncc3Cl)ccc2n(C)c1=O (single isomer, unassigned) [Compound 294b]"
4,++++ (Ymin ≤ 25%),"CNC(=O)COc1cc2cc(Nc3nc(N4CCN([C@@H](C)C5CCN(c6cccc7c(C8CCC(=O)NC8=O)nn(C)c67)CC5)CC4)ncc3Cl)ccc2n(C)c1=O (single isomer, unassigned) [Compound 307a]"
5,+++ (25% < Ymin ≤ 50%),"CNC(=O)COc1cc2cc(Nc3nc(N4CCN([C@H](C)C5CCN(c6cccc7c(C8CCC(=O)NC8=O)nn(C)c67)CC5)CC4)ncc3Cl)ccc2n(C)c1=O (single isomer, unassigned) [Compound 307b]"
6,++ (50% < Ymin ≤ 70%),"CNC(=O)COc1cc2cc(Nc3nc(N4CCC[C@@H](CCNc5cccc6c(C7CCC(=O)NC7=O)nn(C)c56)C4)ncc3Cl)ccc2n(C)c1=O (stereo in doubt) [Compound 294a, rel-2-((6-((5-chloro-2-((3S)-3-(2-((3-(2,6-dioxopiperidin-3-yl)-1-methyl-1H-indazol-7-yl)amino)ethyl)piperidin-1-yl)pyrimidin-4-yl)amino)-1-methyl-2-oxo-1,2-dihydroquinolin-3-yl)oxy)-N-methylacetamide]"
7,++ (50% < Ymin ≤ 70%),"CNC(=O)COc1cc2cc(Nc3nc(N4CCC[C@@H](CNc5ccc6c(C7CCC(=O)NC7=O)nn(C)c6c5)C4)ncc3Cl)ccc2n(C)c1=O (stereo partly drawn) [Compound 261a, 2-((6-((5-chloro-2-((3S)-3-(((3-(2,6-dioxopiperidin-3-yl)-1-methyl-1H-indazol-6-yl)amino)methyl)piperidin-1-yl)pyrimidin-4-yl)amino)-1-methyl-2-oxo-1,2-dihydroquinolin-3-yl)oxy)-N-methylacetamide]"
8,+++ (25% < Ymin ≤ 50%),"CNC(=O)COc1cc2cc(Nc3nc(N4CCC[C@H](CNc5ccc6c(C7CCC(=O)NC7=O)nn(C)c6c5)C4)ncc3Cl)ccc2n(C)c1=O (stereo partly drawn) [Compound 261b, 2-((6-((5-chloro-2-((3R)-3-(((3-(2,6-dioxopiperidin-3-yl)-1-methyl-1H-indazol-6-yl)amino)methyl)piperidin-1-yl)pyrimidin-4-yl)amino)-1-methyl-2-oxo-1,2-dihydroquinolin-3-yl)oxy)-N-methylacetamide]"
9,++ (50% < Ymin ≤ 70%),"CNC(=O)COc1cc2cc(Nc3nc(NC[C@H]4CC[C@@H](Nc5cccc(C6CCC(=O)NC6=O)c5)CC4)ncc3Cl)ccc2n(C)c1=O (some centres unmarked) [Compound 262a, 2-((6-((5-chloro-2-((((1s,4s)-4-((3-(2,6-dioxopiperidin-3-yl)phenyl)amino)cyclohexyl)methyl)amino)pyrimidin-4-yl)amino)-1-methyl-2-oxo-1,2-dihydroquinolin-3-yl)oxy)-N-methylacetamide]"
10,++ (50% < Ymin ≤ 70%),"CNC(=O)COc1cc2cc(Nc3nc(NC[C@H]4CC[C@H](Nc5cccc(C6CCC(=O)NC6=O)c5)CC4)ncc3Cl)ccc2n(C)c1=O (some centres unmarked) [Compound 262b, 2-((6-((5-chloro-2-((((1r,4r)-4-((3-(2,6-dioxopiperidin-3-yl)phenyl)amino)cyclohexyl)methyl)amino)pyrimidin-4-yl)amino)-1-methyl-2-oxo-1,2-dihydroquinolin-3-yl)oxy)-N-methylacetamide]"

# Reference: patent US20250270191A1, “QUINOLONE BCL6 BIFUNCTIONAL DEGRADERS” (Treeline Biosciences, Inc., priority 2022, published 2025)
